Measured values: PMC11137008, “Cryo-EM analysis reveals human SID-1 transmembrane family member 1 dynamics underlying lipid hydrolytic activity” (Communications Biology, 2024)

How the values were obtained:
[1] = molecular target: T1, human SIDT1 (hSIDT1) (Homo sapiens, UniProt Q9NXL6); assay: TLC fluorescence ceramidase assay; type: biochemical; settings: labelled compound; 10 mM methyl beta-cyclodextrin required (cholesterol depletion); pH 8.0, 0.01% GDN, 37 °C, 3 h
T1 construct: full length; expressed in Expi293F cells by baculovirus; digitonin extraction, GDN micelle; N-glycosylated homodimer
T1 sequence (Q9NXL6 20-827): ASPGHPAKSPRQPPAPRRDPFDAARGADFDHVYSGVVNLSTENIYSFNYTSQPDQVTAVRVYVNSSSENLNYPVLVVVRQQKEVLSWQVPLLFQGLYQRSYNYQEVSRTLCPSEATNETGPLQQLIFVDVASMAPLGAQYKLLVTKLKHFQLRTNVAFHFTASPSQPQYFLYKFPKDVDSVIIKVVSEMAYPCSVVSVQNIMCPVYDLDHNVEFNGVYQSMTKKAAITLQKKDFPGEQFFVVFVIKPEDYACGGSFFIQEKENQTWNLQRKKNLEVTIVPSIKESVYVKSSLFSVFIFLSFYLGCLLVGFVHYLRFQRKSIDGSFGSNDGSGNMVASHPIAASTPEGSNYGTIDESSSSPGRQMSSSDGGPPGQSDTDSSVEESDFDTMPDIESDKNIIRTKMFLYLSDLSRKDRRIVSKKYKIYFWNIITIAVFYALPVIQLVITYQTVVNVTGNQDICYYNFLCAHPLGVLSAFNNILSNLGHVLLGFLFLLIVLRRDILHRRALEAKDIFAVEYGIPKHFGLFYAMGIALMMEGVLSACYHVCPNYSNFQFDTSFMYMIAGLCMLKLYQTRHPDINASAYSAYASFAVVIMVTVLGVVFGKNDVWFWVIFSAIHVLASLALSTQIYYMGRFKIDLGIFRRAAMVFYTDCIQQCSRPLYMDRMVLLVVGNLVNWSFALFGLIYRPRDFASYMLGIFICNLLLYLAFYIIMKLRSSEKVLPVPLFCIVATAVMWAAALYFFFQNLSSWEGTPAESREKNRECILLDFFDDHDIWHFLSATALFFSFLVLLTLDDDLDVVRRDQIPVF

[2] = molecular target: T1, human SIDT1 (hSIDT1); assay: cryo-EM structure, […] A; GC/MS of purified protein; type: binding; settings: endogenous, co-purified; allosteric; TM5/TM6/TM7 pocket at intracellular side; two molecules per protomer described (CLR1, CLR2); GDN, pH 6.0
[3] = molecular target: T2, human SIDT1 full length WT (Homo sapiens, UniProt Q9NXL6 1-827); assay: EMSA; pH 7.0; EMSA: 1 or 2 uM 46 bp dsRNA with 0-8 uM hSIDT1 (mutants 1-5 uM, 1 uM dsRNA, pH 5.0), 4 C, 2 h; electrophoresis in Tris-acetate buffer at pH 4.0-7.0; protein stock in 20 mM MES pH 6.0, 150 mM NaCl, 0.01% GDN; settings: protein: recombinant; tags: C-terminal TEV site, FLAG, His10; chain copies: 2; blunt (implied by 46 bp)
T2 sequence: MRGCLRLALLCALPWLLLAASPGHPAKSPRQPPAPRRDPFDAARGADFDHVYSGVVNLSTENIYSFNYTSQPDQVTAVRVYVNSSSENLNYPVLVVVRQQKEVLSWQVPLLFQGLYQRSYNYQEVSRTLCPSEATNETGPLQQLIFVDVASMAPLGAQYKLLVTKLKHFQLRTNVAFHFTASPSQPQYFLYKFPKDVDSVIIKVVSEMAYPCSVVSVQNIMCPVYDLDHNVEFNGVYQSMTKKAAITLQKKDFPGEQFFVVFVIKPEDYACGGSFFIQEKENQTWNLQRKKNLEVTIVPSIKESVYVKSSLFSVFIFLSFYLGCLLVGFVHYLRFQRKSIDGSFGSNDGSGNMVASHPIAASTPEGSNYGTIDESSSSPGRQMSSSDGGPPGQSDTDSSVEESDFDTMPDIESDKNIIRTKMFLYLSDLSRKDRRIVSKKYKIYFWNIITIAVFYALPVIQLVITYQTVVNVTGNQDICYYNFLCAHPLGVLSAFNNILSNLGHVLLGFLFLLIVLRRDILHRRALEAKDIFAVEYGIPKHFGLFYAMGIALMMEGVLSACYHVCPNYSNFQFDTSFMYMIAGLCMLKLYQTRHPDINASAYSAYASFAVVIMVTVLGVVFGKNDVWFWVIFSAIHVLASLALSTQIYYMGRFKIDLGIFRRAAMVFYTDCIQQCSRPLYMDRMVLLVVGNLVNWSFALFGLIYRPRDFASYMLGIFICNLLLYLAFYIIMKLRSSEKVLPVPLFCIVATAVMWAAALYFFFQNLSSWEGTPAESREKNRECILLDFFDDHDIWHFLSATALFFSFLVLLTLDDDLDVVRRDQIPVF

CCCCCCCCCCCCC/C=C/[C@@H](O)[C@H](CO)NC(=O)CCCCCCCCCCCNc1ccc([N+](=O)[O-])c2nonc12 [C12 NBD ceramide]
TLC fluorescence ceramidase assay [1]: SIDT1 exhibited a ceramidase activity only in the presence of methyl β-cyclodextrin

CCCCCCCCCCCCCCC[C@@H](O)[C@H](CO)NC(=O)CCCCCCCCCCCNc1ccc([N+](=O)[O-])c2nonc12 [C12 NBD dihydroceramide]
TLC fluorescence ceramidase assay [1]: SIDT1 also harbors a ceramidase activity to ceramide and dihydroceramide

CC(C)CCC[C@@H](C)[C@H]1CC[C@H]2[C@@H]3CC=C4C[C@@H](O)CC[C@]4(C)[C@H]3CC[C@]12C [cholesterol]
cryo-EM structure, 2.77 A; GC/MS of purified protein [2]: endogenous cholesterol is assumed to be co-purified with SIDT1

B1: 46 bp dsRNA (dsRNA)
RNA 1: AUUCUGCGGAUUAUUUGGCAAAGGAAGCAUUGACACAUGCGCCAAU
RNA 2: AUUGGCGCAUGUGUCAAUGCUUCCUUUGCCAAAUAAUCCGCAGAAU
binding result [3]: binds
